The text below walks through data of patent US20250136606A1, “MODULATORS OF TRPML, THEIR COMPOSITIONS AND METHODS OF USE” (Caraway Therapeutics, Inc., priority 2021, published 2025).

Structures are written as SMILES.

Common to all, as to type: cell-based
Holding throughout (details): fluorescent calcium assay

One assay deals with T1, TRPML2 (Homo sapiens, UniProt Q8IZK6).
T1 construct: expressed in transfected cells
T1 sequence (Q8IZK6 1-566): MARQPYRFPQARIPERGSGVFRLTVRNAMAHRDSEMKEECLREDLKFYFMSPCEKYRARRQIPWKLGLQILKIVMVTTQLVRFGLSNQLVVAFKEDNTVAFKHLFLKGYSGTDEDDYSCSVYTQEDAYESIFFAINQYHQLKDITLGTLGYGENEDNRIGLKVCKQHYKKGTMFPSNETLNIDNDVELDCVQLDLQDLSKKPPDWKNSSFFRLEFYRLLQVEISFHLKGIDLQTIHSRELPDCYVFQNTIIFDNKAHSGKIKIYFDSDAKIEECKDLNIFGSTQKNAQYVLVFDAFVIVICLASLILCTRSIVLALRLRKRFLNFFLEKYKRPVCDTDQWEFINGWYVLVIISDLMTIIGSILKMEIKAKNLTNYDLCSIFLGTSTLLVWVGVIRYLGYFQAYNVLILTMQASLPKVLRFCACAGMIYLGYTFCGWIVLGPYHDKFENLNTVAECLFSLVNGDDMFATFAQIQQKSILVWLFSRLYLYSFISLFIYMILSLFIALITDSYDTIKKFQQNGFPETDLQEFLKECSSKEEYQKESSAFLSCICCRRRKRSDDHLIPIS
The experiment in a line: Fluorescent TRPML2 assay (performed as for TRPML1, substituting the TRPML2 subtype). Put shortly:
(§1)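 HEK-293 Trex, dox-induced (0.5 ug/mL), mutated for surface expression. Fluo4-AM 1 micromolar load ~60 min, dark; buffer modified Ringer's, 10 mM Ca. Cpds 20 micromolar–6 nanomolar final, half-log, n=3. Read ex 480/em 540; % activity vs controls; EC50 nonlinear fit.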

The next assay addresses T2, TRPML3 (Homo sapiens, UniProt Q8TDD5).
T2 construct: expressed in transfected cells
T2 sequence (Q8TDD5 1-553): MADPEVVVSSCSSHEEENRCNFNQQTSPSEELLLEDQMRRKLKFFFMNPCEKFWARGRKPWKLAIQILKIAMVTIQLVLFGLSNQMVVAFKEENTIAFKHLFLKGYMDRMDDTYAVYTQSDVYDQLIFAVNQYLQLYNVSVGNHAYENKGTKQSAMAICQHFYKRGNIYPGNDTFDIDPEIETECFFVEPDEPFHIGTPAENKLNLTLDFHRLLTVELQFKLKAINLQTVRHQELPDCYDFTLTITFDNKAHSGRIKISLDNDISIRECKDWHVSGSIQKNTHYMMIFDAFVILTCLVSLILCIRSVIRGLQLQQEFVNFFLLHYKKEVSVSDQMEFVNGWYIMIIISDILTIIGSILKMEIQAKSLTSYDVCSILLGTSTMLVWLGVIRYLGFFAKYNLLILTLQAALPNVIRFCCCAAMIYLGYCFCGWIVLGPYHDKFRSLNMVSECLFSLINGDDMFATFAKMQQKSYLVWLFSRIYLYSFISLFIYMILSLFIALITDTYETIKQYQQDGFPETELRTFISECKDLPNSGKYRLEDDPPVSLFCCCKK
Briefly: Fluorescent TRPML3 assay (performed as for TRPML1, substituting the TRPML3 subtype). An outline of the steps: as §1

The target of another assay is TRPML1 (Homo sapiens, UniProt Q9GZU1). Briefly: Fluorescent TRPML1 assay (Fluo4-AM calcium fluorescence in doxycycline-induced HEK-293 Trex cells). Put shortly:
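HEK-293 Trex cells stably carrying human TRPML1 (surface-trafficking mutant) were induced overnight with 0.5 ug/mL doxycycline, loaded with 1 micromolar Fluo4-AM, and suspended in Ringer's with 10 mM calcium. Compounds at 20 micromolar to 6 nanomolar final, half-log steps, triplicate; fluorescence 480/540 nm gave percent activity versus controls and EC50 by non-linear regression.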

Chain of TRPML1 (Q9GZU1 whole entry L15A/L16A/L577A/L578A, form open): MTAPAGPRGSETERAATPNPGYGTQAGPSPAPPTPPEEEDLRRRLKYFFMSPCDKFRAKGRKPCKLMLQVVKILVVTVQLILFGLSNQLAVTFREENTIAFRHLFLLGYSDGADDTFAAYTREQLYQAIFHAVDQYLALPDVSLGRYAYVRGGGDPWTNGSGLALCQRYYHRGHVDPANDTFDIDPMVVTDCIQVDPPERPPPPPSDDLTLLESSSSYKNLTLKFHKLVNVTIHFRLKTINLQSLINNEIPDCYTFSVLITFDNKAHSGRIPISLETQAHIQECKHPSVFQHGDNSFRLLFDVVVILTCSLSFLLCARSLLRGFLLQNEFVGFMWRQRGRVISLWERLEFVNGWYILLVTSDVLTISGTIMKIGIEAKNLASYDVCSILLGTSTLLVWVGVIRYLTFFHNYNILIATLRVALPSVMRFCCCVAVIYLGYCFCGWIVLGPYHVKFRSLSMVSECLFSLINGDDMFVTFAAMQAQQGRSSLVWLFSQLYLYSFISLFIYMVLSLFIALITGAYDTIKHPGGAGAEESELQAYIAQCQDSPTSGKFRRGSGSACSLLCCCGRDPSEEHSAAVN

Regarding `C[C@@H]1CN(c2ncnc3c2c(N(C)C)cn3-c2cc(C#N)ccn2)CCN1C(=O)OC(C)(C)C` [Compound 427, tert-Butyl (R)-4-(7-(4-cyanopyridin-2-yl)-5-(dimethylamino)-7H-pyrrolo[2,3-d]pyrimidin-4-yl)-2-methylpiperazine-1-carboxylate], the EC50 at TRPML2, on TRPML3 and at TRPML1 was less than 100 nM throughout.
For the compound `C[C@H]1CN(C(=O)OC(C)(C)C)CCN1c1ncnc2c1c(-c1ccccc1F)cn2-c1ncc(C#N)s1` [Compound 428, tert-butyl (S)-4-(7-(5-cyanothiazol-2-yl)-5-(2-fluorophenyl)-7H-pyrrolo[2,3-d]pyrimidin-4-yl)-3-methylpiperazine-1-carboxylate], the EC50 at TRPML2, at TRPML3 and on TRPML1 was less than 100 nM each time.
Turning to `CC(C)(C)OC(=O)N1CCN(c2ncnc3c2c(C2CC2)cn3-c2cc(C#N)ccn2)C2(CC2)C1` [Compound 429, tert-butyl 4-(7-(4-cyanopyridin-2-yl)-5-cyclopropyl-7H-pyrrolo[2,3-d]pyrimidin-4-yl)-4,7-diazaspiro[2.5]octane-7-carboxylate], the EC50 on TRPML2, at TRPML3 and on TRPML1 was less than 100 nM throughout.
In the case of `C[C@@H]1CN(c2ncnc3c2c(N(C)C)cn3-c2cccc(Cl)c2)CCN1C(=O)OC(C)(C)C` [Compound 430, tert-butyl (R)-4-(7-(3-chlorophenyl)-5-(dimethylamino)-7H-pyrrolo[2,3-d]pyrimidin-4-yl)-2-methylpiperazine-1-carboxylate], the EC50 – broadly, the concentration that produces a half-maximal response – was 100 to 500 nM on TRPML2, less than 100 nM on TRPML3 and less than 100 nM at TRPML1.
As to `C[C@H]1CN(C(=O)OC(C)(C)C)CCN1c1ncnc2c1c(C1CC1)cn2-c1cc(C#N)ncn1` [Compound 431, tert-butyl (S)-4-(7-(6-cyanopyrimidin-4-yl)-5-cyclopropyl-7H-pyrrolo[2,3-d]pyrimidin-4-yl)-3-methylpiperazine-1-carboxylate], the figures for the EC50 on TRPML2, at TRPML3 and at TRPML1 were 500 to 2000 nM, less than 100 nM and 100 to 500 nM, respectively.
The like results for `C[C@H]1CN(C(=O)OC(C)(C)C)CCN1c1ncnc2c1c(C1CC1)cn2-c1nccc(C#N)n1` [Compound 432, tert-Butyl (S)-4-(7-(4-cyanopyrimidin-2-yl)-5-cyclopropyl-7H-pyrrolo[2,3-d]pyrimidin-4-yl)-3-methylpiperazine-1-carboxylate] were, in that order, 500 to 2000 nM, less than 100 nM and 100 to 500 nM.
For `C[C@H]1CN(C(=O)OC(C)(C)C)CCN1c1ncnc2c1c(-c1ccccc1F)cn2-c1nc(C#N)cs1` [Compound 433, tert-butyl (S)-4-(7-(4-cyanothiazol-2-yl)-5-(2-fluorophenyl)-7H-pyrrolo[2,3-d]pyrimidin-4-yl)-3-methylpiperazine-1-carboxylate], in that order: 500 to 2000 nM, 100 to 500 nM and 100 to 500 nM.
As for `C[C@@H]1CN(c2ncnc3c2c(-c2ccccc2F)cn3-c2ncc(C#N)s2)[C@@H](C)CN1C(=O)OC(C)(C)C` [Compound 434, tert-butyl (2R,5S)-4-(7-(5-cyanothiazol-2-yl)-5-(2-fluorophenyl)-7H-pyrrolo[2,3-d]pyrimidin-4-yl)-2,5-dimethylpiperazine-1-carboxylate], the EC50 on TRPML2, on TRPML3 and at TRPML1 was less than 100 nM in each case.
As to `CC(C)(C)OC(=O)N1CCN(c2ncnc3c2c(-c2ccccc2F)cn3-c2cc(C#N)ccn2)C2(CC2)C1` [Compound 435, tert-butyl 4-(7-(4-cyanopyridin-2-yl)-5-(2-fluorophenyl)-7H-pyrrolo[2,3-d]pyrimidin-4-yl)-4,7-diazaspiro[2.5]octane-7-carboxylate], the EC50 on TRPML2, on TRPML3 and on TRPML1 was less than 100 nM each time.
With `C[C@H]1CN(C(=O)OC(C)(C)C(F)(F)F)CCN1c1ncnc2c1c(C1CCC1)cn2-c1cc(C#N)ccn1` [Compound 436, 1,1,1-trifluoro-2-methylpropan-2-yl(S)-4-(7-(4-cyanopyridin-2-yl)-5-cyclobutyl-7H-pyrrolo[2,3-d]pyrimidin-4-yl)-3-methylpiperazine-1-carboxylate], the EC50 on TRPML2 was 100 to 500 nM; at TRPML3 it was less than 100 nM; at TRPML1, less than 100 nM.
Regarding `C[C@H]1CN(C(=O)OC(C)(C)C)CCN1c1ncnc2c1c(-c1ccccc1F)cn2-c1cc(C#N)ncn1` [Compound 437, tert-butyl (S)-4-(7-(6-cyanopyrimidin-4-yl)-5-(2-fluorophenyl)-7H-pyrrolo[2,3-d]pyrimidin-4-yl)-3-methylpiperazine-1-carboxylate], the EC50 on TRPML2, at TRPML3 and at TRPML1 was less than 100 nM in each case.
For the compound `C[C@H]1CN(C(=O)OC(C)(C)C)CCN1c1ncnc2c1c(-c1ccccc1F)cn2-c1nccc(C#N)n1` [Compound 438, tert-butyl (S)-4-(7-(4-cyanopyrimidin-2-yl)-5-(2-fluorophenyl)-7H-pyrrolo[2,3-d]pyrimidin-4-yl)-3-methylpiperazine-1-carboxylate], the results for the EC50 at TRPML2, on TRPML3 and at TRPML1 were 500 to 2000 nM, less than 100 nM and less than 100 nM, respectively.
With `C[C@H]1CN(C(=O)OC(C)(C)C)CCN1c1ncnc2c1c(C1CC1)cn2-c1cc(C#N)cnn1` [Compound 439, tert-butyl (S)-4-(7-(5-cyanopyridazin-3-yl)-5-cyclopropyl-7H-pyrrolo[2,3-d]pyrimidin-4-yl)-3-methylpiperazine-1-carboxylate], the values for the EC50 on TRPML2, on TRPML3 and on TRPML1 were 500 to 2000 nM, less than 100 nM and 100 to 500 nM, respectively.
With `C[C@H]1CN(C(=O)OC(C)(C)C)CCN1c1ncnc2c1c(C1CC1)cn2-c1ncc(C#N)[nH]1` [Compound 440, tert-butyl (S)-4-(7-(5-cyano-1H-imidazol-2-yl)-5-cyclopropyl-7H-pyrrolo[2,3-d]pyrimidin-4-yl)-3-methylpiperazine-1-carboxylate], the EC50 on TRPML2 is greater than 2000 nM; at TRPML3, 500 to 2000 nM; at TRPML1 it was greater than 2000 nM.
Consider `CCN(CC)c1cn(-c2cc(C#N)ccn2)c2ncnc(N3CCN(C(=O)OC(C)(C)C)CC3)c12` [Compound 441, tert-butyl 4-(7-(4-cyanopyridin-2-yl)-5-(diethylamino)-7H-pyrrolo[2,3-d]pyrimidin-4-yl)piperazine-1-carboxylate], for which the EC50 at TRPML2 is greater than 2000 nM; at TRPML3, 100 to 500 nM; at TRPML1, 100 to 500 nM.
With `C[C@H]1CN(C(=O)OC(C)(C)C)CCN1c1ncnc2c1c(N(C)C1CC1)cn2-c1cc(C#N)ccn1` [Compound 442, tert-butyl (S)-4-(7-(4-cyanopyridin-2-yl)-5-(cyclopropyl(methyl)amino)-7H-pyrrolo[2,3-d]pyrimidin-4-yl)-3-methylpiperazine-1-carboxylate], the results for the EC50 on TRPML2, at TRPML3 and at TRPML1 were 500 to 2000 nM, less than 100 nM and less than 100 nM, respectively.
Consider `CC(C)N(C)c1cn(-c2cc(C#N)ccn2)c2ncnc(N3CCN(C(=O)OC(C)(C)C)C[C@@H]3C)c12` [Compound 443, tert-butyl (S)-4-(7-(4-cyanopyridin-2-yl)-5-(isopropyl(methyl)amino)-7H-pyrrolo[2,3-d]pyrimidin-4-yl)-3-methylpiperazine-1-carboxylate], for which the EC50 at TRPML2, on TRPML3 and on TRPML1 was less than 100 nM throughout.
Turning to `Cc1cc(-n2cc(-c3ccccc3F)c3c(N4CCN(C(=O)OC(C)(C)C)C[C@@H]4C)ncnc32)cc(C#N)n1` [Compound 444, tert-butyl (S)-4-(7-(2-cyano-6-methylpyridin-4-yl)-5-(2-fluorophenyl)-7H-pyrrolo[2,3-d]pyrimidin-4-yl)-3-methylpiperazine-1-carboxylate], the EC50 was 100 to 500 nM on TRPML2, less than 100 nM at TRPML3 and less than 100 nM at TRPML1.
